Where “and” joins values, the source holds several entries; their conditions need not be identical. Equal entries are not always repeated.
Experiments:
[1] = test system: Staphylococcus epidermitis; assay: Bacterial growth inhibition screen in LB media (absorbance 595 nm), percent inhibition; details: S. epidermitis
[2] = target: T1, bacterial NAD synthetase enzyme (Bacillus subtilis, UniProt P08164); assay: biochemical; type: biochemical
T1 sequence (P08164 2-272 limits assumed): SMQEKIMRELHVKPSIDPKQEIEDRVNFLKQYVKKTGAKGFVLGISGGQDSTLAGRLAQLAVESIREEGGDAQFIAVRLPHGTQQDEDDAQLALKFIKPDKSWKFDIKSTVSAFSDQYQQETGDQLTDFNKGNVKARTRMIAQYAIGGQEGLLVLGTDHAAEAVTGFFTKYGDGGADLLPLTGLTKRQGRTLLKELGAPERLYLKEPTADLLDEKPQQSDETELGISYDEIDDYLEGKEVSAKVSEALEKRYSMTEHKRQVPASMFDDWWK

[3] = compound at 0.2 mM (Table 312A)

Compound	% Inhibition ([1]; concentration screened 10 uM)	% Inhibition [2, 3]	% Inhibition ([1]; concentration screened 100 uM)	% Inhibition ([2]; compound at 0.1 mM (Table 314))
c1ccc(-c2ccc3[nH]c(CCCCCCCC[n+]4cccc5ccccc54)cc3c2)cc1 [Compound 437]	11.84%	6.91%		
CC(C)c1ccc2[nH]c(CCCCOC(=O)C(c3ccccc3)c3ccccc3)cc2c1 [Compound 663]		15.43%	44.28%	
CC(=O)c1ccc2[nH]c(CCCCCC[n+]3ccc4ccccc4c3)cc2c1 [Compound 585]	2.09%	17.43%		
O=C(c1ccccc1)c1ccc2[nH]c(CCCCOC(=O)c3ccccc3-c3ccccc3)cc2c1 [Compound 648]		5.82%	14.57%	
Fc1ccc2[nH]c(CCCCCCC[n+]3ccc4ccccc4c3)cc2c1 [Compound 562]	9.44%	46.44%		
CC(=O)c1ccc2[nH]c(CCCCCC[n+]3cccc4ccccc43)cc2c1 [Compound 477]	3.69%	10.15%		
CN(C)c1ccc(C(=O)OCCCCCCCCc2cc3cc(C(F)(F)F)ccc3[nH]2)cc1 [Compound 611]		15.13%	9.67%	
O=[N+]([O-])c1ccc2[nH]c(CCCCCC[n+]3ccc4ccccc4c3)cc2c1 [Compound 549]	3.13%	14.08%		
O=C(OCCCCc1cc2cc(C(F)(F)F)ccc2[nH]1)c1cccnc1 [Compound 654]	25.20%	2.11%		
O=C(OCCCCCCCc1cc2cc(Oc3ccccc3)ccc2[nH]1)c1ccncc1 [Compound 700]	3.61%	2.54%		
O=[N+]([O-])c1cc([N+](=O)[O-])c2[nH]c(CCCCCC[n+]3cccc4ccccc43)cc2c1 [Compound 417]	7.80%	14.59%		
COC(=O)C=Cc1cn(CCCCCCC[n+]2cccc(C(=O)OC)c2)c2ccccc12 [Compound 269]	46.12%			51.12%
CC(C)c1ccc2[nH]c(CCCCCCC[n+]3ccc4ccccc4c3)cc2c1 [Compound 538]	43.05%	40.95%		
c1ccc(Oc2ccc3[nH]c(CCCCCC[n+]4ccccc4)cc3c2)cc1 [Compound 351]		65.08%	99.57%	
O=C(c1ccccc1)c1ccc2[nH]c(CCC[n+]3cccc4ccccc43)cc2c1 [Compound 462]	3.13%	3.84%		
O=C(c1ccccc1)c1ccc2[nH]c(CCCCC[n+]3cccc4ccccc43)cc2c1 [Compound 464]	35.45%	13.50%		
COc1ccc2[nH]c(CCCC[n+]3ccc4ccccc4c3)cc2c1 [Compound 589]	29.35%			24.98%
c1ccc(C(c2ccccc2)(c2ccccc2)c2ccc3[nH]c(CCCCCC[n+]4ccccc4)cc3c2)cc1 [Compound 339]		42.87%	100.00%	
CC(C)c1ccc2[nH]c(CCC[n+]3ccccc3)cc2c1 [Compound 318]	2.99%	14.94%		
CC(C)c1ccc2[nH]c(CCCCOC(=O)c3ccccc3-c3ccccc3)cc2c1 [Compound 630]		10.72%	13.69%	

Compound	% Inhibition ([1]; concentration screened 10 uM)	% Inhibition [2, 3]	% Inhibition ([1]; concentration screened 100 uM)	% Inhibition ([2]; compound at 0.1 mM (Table 314))
CC(C)c1ccc2[nH]c(CCCCCC[n+]3cccc4ccccc43)cc2c1 [Compound 429]	3.06%	13.01%		
CC(=O)c1ccc2[nH]c(CCCCC[n+]3ccc4ccccc4c3)cc2c1 [Compound 584]		68.79%	96.07%	
CN(C)c1cccc(C(=O)OCCCCCCCCc2cc3cc(Oc4ccccc4)ccc3[nH]2)c1 [Compound 617]		2.02%	19.54%	
CCCCc1ccc2[nH]c(CCCC[n+]3ccc4ccccc4c3)cc2c1 [Compound 529]	10.15%	15.50%		
CCCCc1ccc2[nH]c(CCCCC[n+]3ccc4ccccc4c3)cc2c1 [Compound 530]		20.52%	27.36%	
COc1ccc2[nH]c(CCCCCCCC[n+]3ccc4ccccc4c3)cc2c1 [Compound 593]		60.19%	100.00%	
c1ccc(-c2ccc3[nH]c(CCCCCCCC[n+]4ccc5ccccc5c4)cc3c2)cc1 [Compound 545]	15.39%	32.18%		
CC(=O)c1ccc2[nH]c(CCCC[n+]3ccccc3)cc2c1 [Compound 367]	5.64% and 5.22%	9.72%		
c1ccc(-c2ccc3[nH]c(CCCCCC[n+]4ccc5ccccc5c4)cc3c2)cc1 [Compound 543]	5.99%	28.06%		
CC(=O)c1ccc2[nH]c(CCCCOC(=O)c3ccc(N(C)C)cc3)cc2c1 [Compound 636]		17.36%	6.72%	
FC(F)(F)c1ccc2cc(CCCC[n+]3cccc4ccccc43)[nH]c2c1 [Compound 397]	5.85%			4.51%
c1ccc(C(c2ccccc2)(c2ccccc2)c2ccc3[nH]c(CCCCC[n+]4ccccc4)cc3c2)cc1 [Compound 338]	1.67%			27.28%
COc1ccc2c(ccn2CCCCOC(=O)Cc2ccc([N+](C)(C)C)cc2)c1 [Compound 740]	5.17%	7.23%		
CC(=O)c1ccc2[nH]c(CCCCC[n+]3ccccc3)cc2c1 [Compound 368]			91.36%	21.10%
CCCCc1ccc2[nH]c(CCCCCC[n+]3cccc4ccccc43)cc2c1 [Compound 423]	16.85%	12.09%		
CC(=O)c1ccc2[nH]c(CCCCCC[n+]3ccccc3)cc2c1 [Compound 369]		35.33%	100.00%	
COC(=O)c1ccc2[nH]c(CCCCC[n+]3ccc4ccccc4c3)cc2c1 [Compound 596]		56.49%	96.36%	
O=[N+]([O-])c1ccc2[nH]c(CCCCCCCC[n+]3cccc4ccccc43)cc2c1 [Compound 443]	7.66%	5.51%		
FC(F)(F)c1ccc2[nH]c(CCCCCC[n+]3ccc4ccccc4c3)cc2c1 [Compound 579]	5.57%	12.57%		

From patent publication US6727237B2, “Inhibitors of bacterial NAD synthetase” (priority 1998, dated 2004)
